One assay deals with Pancuronium. Put plainly: Binding affinity to pancuronium.
A further assay concerns Rocuronium. Put plainly: Binding affinity to rocuronium by ITC method. In general terms: ITC needs no label: the signal is the heat of the interaction.

Each structure is given as a SMILES string.

In the assay on Pancuronium, `CC(=O)O[C@@H]1C[C@H]2CCC3C4C[C@H]([N+]5(C)CCCCC5)[C@H](OC(C)=O)[C@@]4(C)CCC3[C@@]2(C)C[C@@H]1[N+]1(C)CCCCC1` (some centres not stated) came in with a Ka of 167 M⁻¹.
For `O=C(O)CCSC[C@H]1O[C@@H]2O[C@H]3[C@H](O)[C@@H](O)[C@@H](O[C@H]4[C@H](O)[C@@H](O)[C@@H](O[C@H]5[C@H](O)[C@@H](O)[C@@H](O[C@H]6[C@H](O)[C@@H](O)[C@@H](O[C@H]7[C@H](O)[C@@H](O)[C@@H](O[C@H]8[C@H](O)[C@@H](O)[C@@H](O[C@H]9[C@H](O)C(O)[C@@H](O[C@H]1[C@H](O)[C@H]2O)O[C@@H]9CSCCC(=O)O)O[C@@H]8CSCCC(=O)O)O[C@@H]7CSCCC(=O)O)O[C@@H]6CSCCC(=O)O)O[C@@H]5CSCCC(=O)O)O[C@@H]4CSCCC(=O)O)O[C@@H]3CSCCC(=O)O` (some centres not stated), the Ka in the assay with Rocuronium was 1.05 10^7 M^-1.

The values above are taken from ChEMBL document CHEMBL5241110, “Medicines for millions of patients” (RSC Med Chem, 2022).
